Measurements as given in paper PMC8266232, “Design, synthesis, and analysis of antiproliferative and apoptosis-inducing activities of nitrile derivatives containing a benzofuran scaffold: EGFR inhibition assay and molecular modelling study” (Journal of Enzyme Inhibition and Medicinal Chemistry, 2021).
Read-outs that look alike come from different tables or passages of the source.

Experiments:
[1] = tested on: PC3 cells (human prostate carcinoma); assay: MTT antiproliferative assay, PC3; assay type: cell-based; settings: PC-3, PC3, triplicate, read-out: In vitro cytotoxicity IC50, PC3
Description: (§1) The in vitro antiproliferative activity of all synthesised compounds was evaluated by an MTT assay according to the reported method[47]^,[48].
(§2) 2. Experimental procedure
(§3) 2.1. Antiproliferative screening
(§4) The in vitro antiproliferative activity of all synthesized compounds was evaluated by an MTT assay according to the reported method using five different human cancer cell lines, including […]
(§5) cervical carcinoma (HeLa), and human prostate cancer (PC-3). The cell lines were obtained from ATCC via a holding company for biological products and vaccines (VACSERA), Cairo, Egypt. The MTT assay is a colorimetric assay used for measuring the cellular growth based on the reduction of the yellow MTT to a purple formazan derivative by mitochondrial succinate dehydrogenase in viable cells. The color intensity of the formazan dye is correlated to the number of viable cells. The […]
(§6) IC50% values were calculated using dose response curves. The percentage of relative cell viability was calculated as (A570 of treated samples)/(A570 of untreated sample) × 100. The cytotoxic activity was defined as the concentration of the compound that caused 50% growth inhibition compared with the growth of an untreated cell. […]

[2] = tested on: MCF-7 cells (human breast adenocarcinoma); assay: MTT antiproliferative assay, MCF-7; assay type: cell-based; settings: MCF-7, triplicate, read-out: In vitro cytotoxicity IC50, MCF-7
Description: as §1, §2, §3, §4, §5, §6

[3] = tested on: HCT-116 cells (colorectal carcinoma); assay: MTT antiproliferative assay, HCT-116; assay type: cell-based, human; settings: HCT-116, triplicate, read-out: In vitro cytotoxicity IC50, HCT-116
Description: as §1, §2, §3, §4, §5, §6

[4] = tested on: HeLa cells (cervical carcinoma); assay: MTT antiproliferative assay, HeLa; assay type: cell-based, human; settings: triplicate, read-out: In vitro cytotoxicity IC50, HeLa
Description: as §1, §2, §3, §4, §5, §6

[5] = tested on: HePG2 cells (hepatocellular carcinoma); assay: MTT antiproliferative assay, HePG2; assay type: cell-based, human; settings: HePG2, triplicate, read-out: In vitro cytotoxicity IC50, HePG2
Description: as §1, §2, §3, §4, §5, §6

[6] = target: T1, EGFR TK (Homo sapiens, UniProt P00533); assay: EGFR TK inhibition assay (luminescent, Kinase-Glo MAX); assay type: biochemical
T1 construct: add 20 μl of diluted EGFR enzyme and incubate at 30°C for 40
Description: 2.2. Epidermal growth factor inhibition assay
In vitro luminescent EGFR tyrosine kinase assay, using Kinase-Glo® MAX as a detection reagent using DP‐Glo™ reagent that measures the adenosine diphosphate (ADP) formed from a kinase reaction, were performed; this luminescent signal positively correlates with ADP amount and kinase activity. In 17 μl of distilled water, 6 μl of Kinase assay buffer and 1 μl ATP and 1 μl PTK substrate were mixed (master mixture). In every well, mix 20 μl of the master mixture and 5 μl of Inhibitor solution (Test Inhibitor) for positive control, and use 5 μl of the same solution without inhibitor (Inhibitor buffer) as the blank solution; add 20 μl of diluted EGFR enzyme and incubate at 30°C for 40

[7] = tested on: WI38 normal cell; assay: MTT cytotoxicity on normal fibroblast cells; assay type: cell-based; settings: Homo sapiens, WI-38; MTT assay, non tumour normal cell WI38
[8] = tested on: HePG2, HCT-116, MCF-7, PC3, HeLa cell lines; assay: MTT antiproliferative assay, IC50 range over the cancer cell line panel; assay type: cell-based; settings: Homo sapiens
Description: as §1, §2, §3, §4, §5, §6

[9] = tested on: HCT-116 cells; assay: Annexin V-FITC/PI apoptosis assay, HCT-116; settings: HCT-116, 10 µM, 24 h
Description: (§7) A comparison was made to the control (DMSO) and reference (gefitinib).
(§8) The cell line samples were analysed using FACSCalibur flow cytometer.
(§9) with PI. The cells were compared with the control, which was treated with DMSO.
Analysis of cellular apoptosis
(§10) concentration, respectively, and then incubated for 24 h. Following incubation, 1 –5 × 10^5 cells were
(§11) harvested and suspended in 500 µ L of the binding buffer, 5 µ L of annexin V-FITC, and 5 µL of PI.
(§12) annexin V-FITC conjugate is specially engineered to produce an enhanced fluorescence signal and
(§13) photostability. The annexin V-FITC kit included annexin V-FITC for detecting apoptosis as well as PI
(§14) for detecting necrosis. Thus, apoptosis and necrosis could be effectively differentiated. Detection and
(§15) analysis of the annexin V-FITC binding by flow cytometry was conducted using a FITC signal
(§16) detector (typically FL1). PI staining was evaluated by a phycoerythrin emission signal detector

[10] = tested on: MCF-7 cells; assay: Cell cycle analysis by PI flow cytometry, MCF-7; settings: MCF-7, 10 µM, 24 h
Description: as §7
(§17) Cell cycle analysis and induction of apoptosis
(§18) Flow cytometry analysis of the cell cycle distribution
(§19) incubation period, the cells were collected, centrifuged, and ﬁxed with ice-cold ethanol (70%). The cells were subsequently treated with a buffer containing RNAse A and 0.1% Triton X-100, and stained
(§20) with PI. The cells were compared with the control, which was treated with DMSO. The DNA content
was measured by flow cytometry [50-52].

[11] = tested on: HCT-116 cells; assay: Cell cycle analysis by PI flow cytometry, HCT-116; settings: HCT-116, 10 µM, 24 h
Description: as §7, §17, §18, §19, §20
was measured by flow cytometry [50-52].

[12] = tested on: MCF-7 cells; assay: Annexin V-FITC/PI apoptosis assay, MCF-7; settings: MCF-7, 10 µM, 24 h
Description: as §7, §8, §9
Analysis of cellular apoptosis
as §10, §11, §12, §13, §14, §15, §16

[13] = Homo sapiens, HCT-116, MTT assay
[14] = four cell lines, without HCT-116, read-out: IC50 range against HePG2, MCF-7, PC3, and HeLa cell lines
[15] = HePG2, HCT-116, MCF-7, PC3, HeLa, read-out: IC50 range over all tested cancer cell lines

T1 sequence (P00533 25-1210): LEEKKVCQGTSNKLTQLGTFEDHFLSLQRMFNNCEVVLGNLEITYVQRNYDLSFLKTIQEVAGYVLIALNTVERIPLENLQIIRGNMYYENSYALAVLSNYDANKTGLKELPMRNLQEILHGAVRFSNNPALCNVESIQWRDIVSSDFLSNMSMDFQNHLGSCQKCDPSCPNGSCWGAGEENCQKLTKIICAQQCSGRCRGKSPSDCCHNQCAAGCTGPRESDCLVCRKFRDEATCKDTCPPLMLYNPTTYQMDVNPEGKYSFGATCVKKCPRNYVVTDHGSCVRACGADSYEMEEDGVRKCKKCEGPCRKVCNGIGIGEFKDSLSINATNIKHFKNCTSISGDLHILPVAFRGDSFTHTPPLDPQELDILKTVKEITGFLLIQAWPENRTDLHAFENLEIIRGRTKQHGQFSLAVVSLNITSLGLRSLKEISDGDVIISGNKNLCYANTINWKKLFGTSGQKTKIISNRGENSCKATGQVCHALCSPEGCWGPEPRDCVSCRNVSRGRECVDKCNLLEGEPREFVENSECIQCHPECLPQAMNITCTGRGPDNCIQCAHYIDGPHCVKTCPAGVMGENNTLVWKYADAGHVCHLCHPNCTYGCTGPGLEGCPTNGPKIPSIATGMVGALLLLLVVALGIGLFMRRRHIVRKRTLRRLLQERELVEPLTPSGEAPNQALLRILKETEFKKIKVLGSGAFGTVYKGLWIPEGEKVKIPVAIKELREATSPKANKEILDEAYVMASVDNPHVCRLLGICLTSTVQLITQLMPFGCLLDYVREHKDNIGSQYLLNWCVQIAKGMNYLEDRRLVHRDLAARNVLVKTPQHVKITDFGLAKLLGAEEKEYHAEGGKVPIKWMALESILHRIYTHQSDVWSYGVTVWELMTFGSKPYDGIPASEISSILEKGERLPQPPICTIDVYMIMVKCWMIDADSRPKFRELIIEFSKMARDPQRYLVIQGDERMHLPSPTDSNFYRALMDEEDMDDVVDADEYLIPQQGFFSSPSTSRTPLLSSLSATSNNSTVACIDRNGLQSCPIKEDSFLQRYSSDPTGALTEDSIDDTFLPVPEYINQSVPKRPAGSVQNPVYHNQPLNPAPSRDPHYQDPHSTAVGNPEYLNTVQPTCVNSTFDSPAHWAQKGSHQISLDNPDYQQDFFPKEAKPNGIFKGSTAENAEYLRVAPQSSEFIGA

| Compound | IC50 [1] | melting point | IC50 ([2]; Homo sapiens, MCF7, MTT assay) | IC50 [3, 13] | IC50 ([4]; Homo sapiens) | IC50 ([5]; Homo sapiens, HepG2, MTT assay) | IC50 ([3]; MTT assay) | IC50 [7] | further results |
| --- | --- | --- | --- | --- | --- | --- | --- | --- | --- |
| N#Cc1c(-c2cc3ccccc3o2)ccnc1NCc1ccccc1 [Compound 10, 4-(Benzofuran-2-yl)-2-(benzylamino)nicotinonitrile] | 30.9 ± 2.6 µM | 180 to 182 °C | 19.7 ± 1.6 µM | 27.5 ± 1.5 µM | 46.2 ± 3 µM | 34.3 ± 2.1 µM |  |  | IC50 [6]: 1.12 µM |
| CC(=C(C#N)C#N)c1cc2ccccc2o1 [Compound 2, 2-(1-(benzofuran-2-yl)ethylidene)malononitrile] | 26.8 ± 2.2 µM | 140 to 142 °C | 8.36 to 17.3 µM | 8.81 to 13.8 µM | 39 ± 2.4 µM | 16.1 to 23.7 µM | 8.81 ± 0.7 µM | 86.5 ± 4.7 µM | IC50 ([2]; MTT assay): 8.36 ± 0.9 µM; IC50 ([5]; MTT assay): 16.1 ± 1.4 µM; IC50 [6]: 1.09 µM |
| CCCCNc1nccc(-c2cc3ccccc3o2)c1C#N [Compound 6, 4-(Benzofuran-2-yl)-2-(butylamino)nicotinonitrile] | > 100 µM | 112 to 114 °C | 81.6 ± 4 µM | 56.4 ± 3.2 µM | 91.9 ± 5.1 µM | 79 ± 4.2 µM |  | 204 ± 11.1 µM | IC50 [8, 14]: 75.2 to 100 µM |
| COc1ccc(CCNc2nccc(-c3cc4ccccc4o3)c2C#N)cc1 [Compound 12, 4-(Benzofuran-2-yl)-2-(4-methoxyphenethylamino)nicotinonitrile] | 93.5 ± 4.4 µM | 156 to 158 °C | 61.5 ± 3.5 µM | 49.7 ± 2.9 µM | 85.4 ± 4.7 µM | 70.5 ± 3.8 µM |  | 76.3 ± 4.14 µM |  |
| N#Cc1c(-c2cc3ccccc3o2)ccnc1NC1CCCCC1 [Compound 9, 4-(Benzofuran-2-yl)-2-(cyclohexylamino)nicotinonitrile] | 51.1 ± 3.6 µM | 186 to 188 °C | 35.2 ± 2.2 µM | 29.5 ± 1.8 µM | 73.6 ± 4.1 µM | 44.7 ± 2.7 µM |  |  |  |
| COc1cc2ncnc(Nc3ccc(F)c(Cl)c3)c2cc1OCCCN1CCOCC1 [Gefitinib, reference compound] |  |  |  |  |  |  |  |  | Late apoptosis ([9]; control 0.11): 7.47%; Necrosis ([9]; control 0.12): 1.8%; Early apoptosis ([9]; control 0.16): 7.22%; Apoptosis, Total ([9]; control 0.39): 16.49%; %Pre/G1 ([10]; control 0.55, '% Apoptosis' in Figure 6A): 13.55%; %G2/M ([10]; control 3.66): 23.63%; %S ([10]; control 27.37): 16.51%; %G0/G1 ([10]; control 66.42): 46.31%; %Pre/G1 ([11]; control 0.39, '% Apoptosis' in Figure 5A): 16.49%; %G2/M ([11]; control 4.19): 21.71%; %S ([11]; control 25.21): 13.34%; %G0/G1 ([11]; control 70.21): 48.37%; Necrosis ([12]; control 0.15): 1.64%; Early apoptosis ([12]; control 0.16): 4.28%; Late apoptosis ([12]; control 0.24): 7.63%; Apoptosis, Total ([12]; control 0.55): 13.55% |
| N#Cc1c(-c2cc3ccccc3o2)ccnc1NCCCO [Compound 8, 4-(Benzofuran-2-yl)-2-(3-hydroxypropylamino)nicotinonitrile] | 36.7 ± 2.8 µM | 124 to 126 °C |  | 8.81 to 13.8 µM | 58.8 ± 3.7 µM | 16.1 to 23.7 µM | 13.8 ± 1.3 µM | 151 ± 8.22 µM | IC50 [8, 15]: 13.8 to 58.8 µM; IC50 ([5]; MTT assay): 23.7 ± 1.8 µM; IC50 [6]: 4.24 µM |
| CCNc1nccc(-c2cc3ccccc3o2)c1C#N [Compound 4, 4-(Benzofuran-2-yl)-2-(ethylamino)nicotinonitrile] | 14.3 ± 1.3 µM | 155 to 158 °C | 55 ± 3.2 µM | 72.4 ± 3.8 µM | 21 µM | 58.8 ± 3.3 µM |  |  | IC50 [8, 14]: 14.3 to 58.8 µM; IC50 [4]: 21.1 ± 1.6 µM |
| N#Cc1c(-c2cc3ccccc3o2)ccnc1NCCO [Compound 7, 4-(Benzofuran-2-yl)-2-(2-hydroxyethylamino)nicotinonitrile] | 70.1 ± 3.8 µM | 164 to 166 °C | 40.8 ± 2.5 µM | 38.6 µM | 73.3 ± 4.2 µM | 53.4 ± 2.9 µM | 38.6 ± 2 µM | 59.5 ± 3.23 µM | IC50 [8, 15]: 38.6 to 73.3 µM |
| COc1cccc2c1C(=O)c1c(O)c3c(c(O)c1C2=O)C[C@@](O)(C(=O)CO)C[C@@H]3O[C@H]1C[C@H](N)[C@H](O)[C@H](C)O1 [DOX, Doxorubicin, reference compound] |  |  |  |  |  | 4.5 ± 0.2 µM |  | 55.3 ± 3 µM |  |
| CN(C)C/C=C/C(=O)Nc1cc2c(Nc3ccc(F)c(Cl)c3)ncnc2cc1O[C@H]1CCOC1 [Afatinib, reference compound] | 7.6 ± 0.6 µM |  | 7.23 µM | 11.2 µM | 6.3 ± 0.69 µM | 5.53 µM | 11.2 ± 1.11 µM |  | IC50 [8, 15]: 5.5 to 11.2 µM; IC50 ([2]; MTT assay): 7.2 ± 0.5 µM; IC50 ([5]; MTT assay): 5.5 ± 0.24 µM |
| CCCNc1nccc(-c2cc3ccccc3o2)c1C#N [Compound 5, 4-(Benzofuran-2-yl)-2-(propylamino)nicotinonitrile] | 94.6 ± 4.9 µM | 118 to 120 °C | > 100 µM | 94.1 ± 5.1 µM | 75.2 ± 4.8 µM | 83.6 ± 4.4 µM |  |  | IC50 [8, 14]: 75.2 to 100 µM |
